Here are results for 1 compound from patent publication US20140066410A1, “INHIBITORS OF BROMODOMAINS AS MODULATORS OF GENE EXPRESSION” (ICAHN SCHOOL OF MEDICINE AT MOUNT SINAI, priority 2011, published 2014).

Entries after “also recorded” stand apart in the source; their conditions may differ.

The test system of series [1] is p53. Kind of series: p21 luciferase assay (p53 inhibition) in U20S cells upon doxorubicin. In kind it is cell-based. As to the method:
U20S Cells were transfected with p21 luciferase (1 μg) and renilla luciferase (100 ng) vectors in 6 well plate format using Fugene 6 (Roche). Briefly, total of 1.1 micrograms of vector was incubated with […] of Fugene 6 reagent for 30 min. After 3-4 hours of transfection, cell were treated with compounds for overnight, and then exposed to 300 nanogram of doxorubicin for next 24 hours. In these experiments, DMSO, transfected cells with empty vector and cell without doxorubicin were used as controls. DMSO concentration is maintained at 0.01%. Transfected cells with doxorubicin treatment were used as positive control. The luciferase activity was estimated by following the manufacturer's instruction (Promega) in a luminometer. […] The inhibitory activity (IC50) of a small molecule on p21 luciferase activity was obtained from the average of three biological replicates using PRISM software.

Series [2] deals with CBP/p300. The experiment in a line: Fluorescence-based lysine acetyltransferase assay with histone H3 peptide substrate. In kind it is biochemical. The following applies: data not shown. The source says:
The latter argues that ATM is active in presence of ischemin, which is consistent with our analysis using Western blots (FIG. 2B).

The target in series [3] is T1, p53 binding to CBP (Homo sapiens, UniProt Q92793).
T1 construct: expressed in transfected cells; host or cells: HEK 293T
The experiment in a line: HA-CBP and Flag-p53 pull-down assay in HEK 293T cells. The series is classed as cell-based. Particulars: doxorubicin treatment. As to the method: HA-CBP and Flag-p53 were transfected into human embryonic kidney (HEK) 293T cells with recommended amount of Fugene 6 (Roche). After transfection, the HA-CBP and Flag-p53 co-transfected cells were treated with ischemin in the presence or absence of doxorubicin. To test the inhibitory potential of ischemin against CBP and p53 association, CBP was first immuno-precipitated by pulling-down with HA-agarose beads (Sigma) and its association with p53 was then determined with western blot using anti-Flag antibody (Sigma).
It was also investigated whether ischemin down-regulates p53 by blocking p53 binding to CBP. Haemaglutinin-tagged CBP(HA-CBP) and Flag-tagged p53 (Flag-p53) was overexpressed in human embryonic kidney (HEK) 293T cells.

Series [4] concerns p53 target genes. The experiment in a line: RT-PCR array of p53 signaling pathway genes in U20S cells. The series is classed as cell-based. Here is the method: The selectivity of ischemin in transcription inhibition of p53 target genes was evaluated using a RT-PCR array analysis of RNA isolated from biological samples of U20S cells. The array was performed on RNA isolated from three different biological repeats in U20S cells using a set of primers selected for a group of genes that are known to be associated within p53 signaling pathways. The differentially expressed genes in treated related to untreated groups, i.e. doxorubicin treated versus untreated, or doxorubicin plus ischemin versus doxorubicin alone, were subjected to pathway analysis by using the Ingenuity System software. The fold changes of these genes were converted to log2Ratio and then imported into IPA tool along with gene symbols. The enriched pathways in the gene list were identified by Fisher exact test at p value of 0.05 and visualized in Canonical pathway explorer.

Series [5] deals with U20S cells. The experiment in a line: BRDU incorporation / cell cycle analysis. In kind it is cell-based. Here is the method:
BRDU incorporation assay for cell cycle evaluation was performed in 96 well plates using calorimetric based kit from Calbiochem (Cat# QiA58). Hundred microliter of 1×10^5/ml cells were plated in DMEM media (Mediatech) with 10% fetal bovine serum (FBS). After 12 hours cells were treated with compounds ischemin and MS 119 (50 μM) with or without doxorubicin treatment (5 μM). The controls were DMSO and untreated cells. BRDU was added for 24 hours treatment. After 24 hours cells were fixed and treated with anti-BRDU antibody. After washings, the wells were incubated with peroxidase. After final wash, the color was developed using TMB as substrate and the reaction was stopped with stop solution and optical density was estimated at 450 nm.
DNA damage induced by doxorubicin leads to p53 stimulated cellular responses including cell cycle arrest, damage repair, and apoptosis. To determine the effect of ischemin on dividing U20S cells, U20S cells were treated with 5-bromo-2-deoxyuridine (BRDU) and the incorporated BRDU during in DNA synthesis was measured using an ELISA assay.

T1 sequence (Q92793 whole entry): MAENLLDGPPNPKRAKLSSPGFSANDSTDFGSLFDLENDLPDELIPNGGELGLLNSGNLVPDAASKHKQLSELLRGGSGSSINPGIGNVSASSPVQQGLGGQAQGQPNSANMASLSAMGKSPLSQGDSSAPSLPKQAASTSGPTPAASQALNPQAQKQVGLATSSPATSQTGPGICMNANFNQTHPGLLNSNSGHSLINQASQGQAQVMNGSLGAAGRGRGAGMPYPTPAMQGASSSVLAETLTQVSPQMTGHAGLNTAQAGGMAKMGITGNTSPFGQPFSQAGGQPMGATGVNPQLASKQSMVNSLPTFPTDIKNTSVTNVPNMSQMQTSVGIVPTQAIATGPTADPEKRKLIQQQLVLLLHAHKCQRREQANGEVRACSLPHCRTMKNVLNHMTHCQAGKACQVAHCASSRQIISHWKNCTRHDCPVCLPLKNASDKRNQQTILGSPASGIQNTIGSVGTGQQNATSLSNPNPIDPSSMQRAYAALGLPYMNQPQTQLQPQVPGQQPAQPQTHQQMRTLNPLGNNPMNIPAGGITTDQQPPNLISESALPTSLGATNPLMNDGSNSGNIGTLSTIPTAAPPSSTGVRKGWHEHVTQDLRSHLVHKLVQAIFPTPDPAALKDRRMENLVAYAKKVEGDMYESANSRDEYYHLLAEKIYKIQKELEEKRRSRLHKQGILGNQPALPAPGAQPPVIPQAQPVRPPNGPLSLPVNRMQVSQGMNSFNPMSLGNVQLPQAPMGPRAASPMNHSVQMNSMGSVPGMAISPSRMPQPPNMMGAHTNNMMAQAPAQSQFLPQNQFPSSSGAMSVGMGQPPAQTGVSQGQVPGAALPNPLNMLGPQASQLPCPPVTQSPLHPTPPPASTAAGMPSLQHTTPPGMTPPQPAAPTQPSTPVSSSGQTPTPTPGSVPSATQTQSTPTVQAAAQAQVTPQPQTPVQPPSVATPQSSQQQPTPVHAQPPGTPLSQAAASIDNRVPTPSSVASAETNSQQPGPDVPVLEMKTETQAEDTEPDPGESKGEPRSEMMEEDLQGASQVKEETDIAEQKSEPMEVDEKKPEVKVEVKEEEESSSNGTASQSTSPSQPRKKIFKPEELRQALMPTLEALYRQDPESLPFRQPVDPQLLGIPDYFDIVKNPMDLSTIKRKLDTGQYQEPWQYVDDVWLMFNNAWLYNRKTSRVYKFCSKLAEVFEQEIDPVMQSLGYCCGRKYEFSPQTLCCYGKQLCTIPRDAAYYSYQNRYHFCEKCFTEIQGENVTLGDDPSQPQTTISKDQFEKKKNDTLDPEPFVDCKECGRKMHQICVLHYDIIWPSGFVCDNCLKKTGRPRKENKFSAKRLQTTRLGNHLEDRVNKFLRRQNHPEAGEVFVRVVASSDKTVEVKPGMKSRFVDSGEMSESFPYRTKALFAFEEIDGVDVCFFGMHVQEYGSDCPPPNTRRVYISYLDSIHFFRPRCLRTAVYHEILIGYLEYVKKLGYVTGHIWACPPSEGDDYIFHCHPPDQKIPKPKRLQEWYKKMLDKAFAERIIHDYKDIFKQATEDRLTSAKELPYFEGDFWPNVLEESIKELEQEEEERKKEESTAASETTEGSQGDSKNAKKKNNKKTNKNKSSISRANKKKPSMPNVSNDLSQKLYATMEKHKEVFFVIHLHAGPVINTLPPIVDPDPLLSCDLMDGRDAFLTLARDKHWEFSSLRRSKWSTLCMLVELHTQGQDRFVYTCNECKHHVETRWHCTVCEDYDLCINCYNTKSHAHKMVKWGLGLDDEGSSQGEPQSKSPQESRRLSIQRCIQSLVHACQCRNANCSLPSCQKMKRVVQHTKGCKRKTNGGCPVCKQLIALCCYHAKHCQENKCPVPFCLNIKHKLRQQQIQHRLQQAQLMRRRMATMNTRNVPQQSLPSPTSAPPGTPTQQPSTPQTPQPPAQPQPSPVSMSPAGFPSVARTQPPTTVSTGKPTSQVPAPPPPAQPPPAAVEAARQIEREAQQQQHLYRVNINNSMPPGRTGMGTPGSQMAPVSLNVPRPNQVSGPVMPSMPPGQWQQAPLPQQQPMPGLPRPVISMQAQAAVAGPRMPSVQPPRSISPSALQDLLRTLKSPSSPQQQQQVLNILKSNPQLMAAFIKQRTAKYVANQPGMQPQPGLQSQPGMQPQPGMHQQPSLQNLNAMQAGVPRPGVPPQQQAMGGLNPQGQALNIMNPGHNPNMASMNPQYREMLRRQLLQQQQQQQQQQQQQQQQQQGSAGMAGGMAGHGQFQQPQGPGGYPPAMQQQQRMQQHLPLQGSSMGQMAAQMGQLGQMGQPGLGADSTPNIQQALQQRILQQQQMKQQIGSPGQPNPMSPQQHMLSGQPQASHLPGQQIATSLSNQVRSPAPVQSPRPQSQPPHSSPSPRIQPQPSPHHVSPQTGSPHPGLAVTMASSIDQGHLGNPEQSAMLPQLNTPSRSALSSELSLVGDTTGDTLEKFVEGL

Regarding `Cc1cc(/N=N/c2cc(S(=O)(=O)O)c(C)cc2C)c(N)cc1O` [Ischemin/MS120, 5-(2-amino-4-hydroxy-5-methylphenylazo)-2,4-dimethylbenzenesulfonic acid], the “Inhibition of p21 luciferase activity” value in series [1] (U20S cells, FIG. 1A) is reported as “Dose-dependent inhibition”. Moreover, in series [1] (compared with lead / ortho-methyl analogs), the “Ability to inhibit p53-dependent p21 luciferase activity / p21 expression (SAR, words)” value is “nearly completely suppresses”. Further, the inhibition at 50 µM in series [1] (compounds at 50 μM, doxorubicin-treated U20S cells) amounted to 104%. Besides, the “Direct inhibition of lysine acetyltransferase activity of CBP/p300” value in series [2] is reported as “ruled out”. In addition, in series [3], the “Inhibition of p53 binding to CBP” value is “inhibiting in a dose-dependent manner”. For the same compound, the “Doxorubicin-induced expression of p53 target genes (CCNE2, CCNG2, CDC2, CDC25A, CDKN1A, CDKN2A, GADD45A, E2F1, E2F3, PCNA, SESN1, SESN2)” value in series [4] was “differentially reduce”. For the same compound, the “Toxicity to U20S cells” value in series [5] (50 μM) is on record as “not toxic”. Besides, the “Prevention of doxorubicin-induced cell cycle arrest (decrease of BRDU incorporation)” value in series [5] (compound 50 μM, doxorubicin 5 μM, U20S cells) is on record as “almost completely prevented; also recorded: prevents a doxorubicin-induced decrease of BRDU incorporation”.

A word on the inhibition: it is the change of the read-out against control, counted positive when it falls.
